Source: paper PMC7822874, “Chemoprotective antimalarials identified through quantitative high-throughput screening of Plasmodium blood and liver stage parasites” (Scientific Reports, 2021)

Tested on: Plasmodium falciparum Dd2 asexual blood stage parasites
Assay: microbe, parasite or virus in culture
Parameters: species or system Plasmodium falciparum Dd2 in human erythrocytes; single determination (one 11-point concentration-response curve)
Conditions: Plasmodium falciparum, DD2, Erythrocyte, 72 h; read-out: AC50

CCOc1ccc(CN2C(=O)c3ccccc3Sc3ccc(C(=O)N4CCC5(CC4)OCCO5)cc32)cc1 [NCGC00108218-01]
AC50: 4.22 µM

COc1cc(NC(=O)Cn2ncc3c(=O)oc4ccccc4c32)cc(OC)c1OC [NCGC00108571-01]
AC50: 2.66 µM

COc1cc2nc(SCc3ccc(F)cc3)n3nc(CCn4c(C)nc5ccccc54)nc3c2cc1OC [NCGC00108638-01]
AC50: 2.99 µM

Cc1ccc(NC(=O)Cn2c(=O)n(-c3ccc(C)cc3)c(=O)c3ccc(C(=O)NCc4ccccc4Cl)cc32)cc1 [NCGC00108700-01]
AC50: 5.31 µM

CCN(C(=O)Cn1c(=O)n(Cc2ccc3c(c2)OCO3)c(=O)c2ccc(C(=O)NC3CCCCC3)cc21)c1cccc(C)c1 [NCGC00108796-01]
AC50: 6.68 µM

OC1=C2C(=Nc3ccccc3SC2c2c(F)cccc2Cl)c2ccccc21 (stereo not shown) [NCGC00108823-01]
AC50: 9.44 µM

CCN(CC)CCCNC(=O)c1nn(-c2ccc(OC)c(Cl)c2)c(=O)c2c1c1ccccc1n2C [NCGC00108872-01]
AC50: 10.6 µM

COc1ccc(-n2nc(C(=O)NCCc3ccc(OC)c(OC)c3)c3c4ccccc4n(C)c3c2=O)cc1Cl [NCGC00108876-01]
AC50: 2.99 µM

CCN(CCCNC(=O)c1nn(-c2ccc(OC)c(Cl)c2)c(=O)c2c1c1ccccc1n2C)c1cccc(C)c1 [NCGC00108898-01]
AC50: 15 µM

CCn1cc(C(=O)NCCCN2CCCC(C)C2)c(=O)c2cc([S+](=O)([O-])N(C)C3CCCCC3)ccc21 (stereo not shown) [NCGC00109162-01]
AC50: 8.41 µM

COc1ccc(/C=C\c2onc(C)c2[S+](=O)([O-])N2CCC(C(=O)Nc3ccc(C)cc3C)CC2)cc1 [NCGC00109197-01]
AC50: 0.841 µM

CCOc1ccccc1NC(=O)C1CCN([S+](=O)([O-])c2c(C)noc2/C=C/c2ccco2)CC1 [NCGC00109315-01]
AC50: 15 µM

CCOC(=O)N1CCC(NC(=O)c2ccc3c(c2)N(Cc2ccccc2)C(=O)c2ccccc2[S+]3[O-])CC1 (stereo not shown) [NCGC00109348-01]
AC50: 13.3 µM

Cc1ccc(Cl)cc1N1CCN(C(=O)c2ccc3c(c2)N(Cc2ccccc2F)C(=O)c2ccccc2[S+]3(=O)[O-])CC1 [NCGC00109582-01]
AC50: 5.31 µM

CCOc1ccc(CCNC(=O)c2ccc3c(c2)N(Cc2ccccc2F)C(=O)c2ccccc2[S+]3[O-])cc1OCC (stereo not shown) [NCGC00109590-01]
AC50: 10.6 µM

COc1ccccc1N1CCN(C(=O)c2ccc3c(c2)N(Cc2cc(C)ccc2C)C(=O)c2ccccc2[S+]3(=O)[O-])CC1 [NCGC00109735-01]
AC50: 9.44 µM

Cc1ccc(C)c(CN2C(=O)c3ccccc3[S+](=O)([O-])c3ccc(C(=O)NCCc4ccc(Cl)cc4)cc32)c1 [NCGC00109793-01]
AC50: 7.5 µM

CCOC(=O)C1CCCN(C(=O)c2ccc3c(c2)N(Cc2ccccc2)C(=O)c2ccccc2[S+]3(=O)[O-])C1 (stereo not shown) [NCGC00109839-01]
AC50: 6.68 µM

CCOc1ccc(NC(=O)CCc2c(C)nc3cc(-c4ccc(Cl)cc4)nn3c2C)cc1 [NCGC00110024-01]
AC50: 6.68 µM

COc1ccc(CCNC(=O)CCc2c(C)nc3c(c(C)nn3-c3ccc(C)c(C)c3)c2C)cc1OC [NCGC00110173-01]
AC50: 0.668 µM

COc1ccc(C)cc1-n1c(-c2ccc(Cl)cc2)cc2c1CC(C)(C)CC2=O [NCGC00110344-01]
AC50: 2.99 µM

CCn1c(=O)c2cc(C(=O)N(CC(C)C)CC(C)C)sc2c2ccccc21 [NCGC00110427-01]
AC50: 10.6 µM

Cc1ccc2nc(Cl)c3cc(C(=O)NCCCN4CCC(C)CC4)sc3c2c1 [NCGC00110841-01]
AC50: 6.68 µM

CCOc1ccc(-c2cc3nc(C4CCN(C(=O)OC(C)(C)C)CC4)c(C(=O)Nc4ccc(C(=O)OC)cc4)cn3n2)cc1 [NCGC00110849-01]
AC50: 4.73 µM

COCCNc1cc(N2CCN(C3CCCCC3)CC2)c2noc3c2c1C(=O)c1ccccc1-3 [NCGC00111067-01]
AC50: 15 µM

CCCCCNc1nc2c(-c3ccccc3)nnn2c2ccccc12 [NCGC00111529-01]
AC50: 11.9 µM

CCOC(=O)N1CCc2c(sc3c2c(=O)n(-c2ccccc2C(F)(F)F)c(=O)n3Cc2ccccc2C)C1 [NCGC00111905-01]
AC50: 13.3 µM

CCOC(=O)N1CCc2c(sc3c2c(=O)n(Cc2ccccc2)c(=O)n3Cc2ccccc2Cl)C1 [NCGC00111943-01]
AC50: 4.73 µM

COc1ccc(CCNC(=O)Cn2c(-c3cccs3)cc3cc(F)ccc32)cc1OC [NCGC00111974-01]
AC50: 4.73 µM

CCOC(=O)N1CCc2c(sc3c2c(=O)n(CCc2ccccc2)c(=O)n3Cc2c(F)cccc2Cl)C1 [NCGC00111977-01]
AC50: 2.66 µM

CSc1cccc(Nc2nc3c([S+](=O)([O-])c4ccccc4)nnn3c3ccc(Cl)cc23)c1 [NCGC00112212-01]
AC50: 1.88 µM

CC1CCN(c2nc3c([S+](=O)([O-])c4ccccc4)nnn3c3ccc(Cl)cc23)CC1 [NCGC00112222-01]
AC50: 2.66 µM

CC(=O)c1ccc(N2CCN(c3nc4c([S+](=O)([O-])c5ccccc5)nnn4c4ccc(Cl)cc34)CC2)cc1 [NCGC00112340-01]
AC50: 3.35 µM

COc1cc2nc(NCc3ccccc3Cl)n3nc(-c4cccnc4)nc3c2cc1OC [NCGC00112532-01]
AC50: 2.11 µM

COc1ccccc1NC(=O)CSc1nc2c(oc3ccccc32)c(=O)n1-c1ccc(C)cc1 [NCGC00112704-01]
AC50: 15 µM

Cc1cccc(N2CCN(C(=O)CCc3nnc4n(CC(C)C)c(=O)c5ccccc5n34)CC2)c1C [NCGC00112784-01]
AC50: 3.35 µM

COc1cc2nc(NCc3ccccc3)n3nc(-c4ccccc4)nc3c2cc1OC [NCGC00112829-01]
AC50: 0.422 µM
